Data set [1] is described as follows: In vivo skin penetration study #1, Tape Stripping method (active magnetic array vs passive finger application). Set-up: species or system human. The method, then:
An in vivo skin penetration study was conducted to establish the effect of using a skin care product of the present invention by applying a skin care composition comprising Pal-KTTKS (SEQ ID NO: 1) with an applicator comprising a magnetic array. The study compared the penetration of the Pal-KTTKS (SEQ ID NO: 1) in combination with a variety of magnetic arrays (active application) to the penetration of Pal-KTTKS (SEQ ID NO: 1) applied with a finger (passive application). Penetration of Pal-KTTKS (SEQ ID NO: 1) in this example is determined according to the Tape Stripping method. In this example, the level of Pal-KTTKS (SEQ ID NO: 1) present in the extract from each tape strip was measured using HPLC and the results normalized to the protein level measured on the tape strip.
(§1) This method provides a suitable means of measuring the amount of skin care active present in skin, and comparing active versus passive application of the skin care active. Two identical rectangular areas of 15 cm^2 are marked on the volar forearms of volunteers. A measured dose (approximately 30 mg) of the Pal-KTTKS (SEQ ID NO: 1) formulation is applied to the delineated areas using a screw actuated syringe. Active application is carried out on one of the delineated areas using the three-quarter profile of a purpose made applicator (e.g., an applicator presenting one of the magnetic arrays set forth in Table 2). Passive application is accomplished on the other delineated area using the tip of a finger in a sweeping motion identical to that of the active application. The formulation is spread evenly across the entire delineated region using a sweeping motion with a fixed speed of approximately 23 cm/s to […]. The application period is 30 seconds during which time visual inspection is used to ensure even distribution and absorption of the formulation by skin. The application area is then left uncovered for a further 30 minutes to ensure complete absorption. Tape strip samples may be collected and/or analyzed immediately after the complete absorption is ensured or after a waiting period (e.g., after multiple applications of the formulation over multiple hours or days).
(§2) The tape stripping procedure is carried out using 10 commercial pre-cut 22.1 mm tape stripping adhesive discs (e.g., D-SQUAME brand tape strips, available from Cuderm Corporation, or equivalent) with an adhesive area of 3.8 cm^2. The 10 tape strips are applied sequentially to the same sampling site, which ideally enables each tape strip to obtain a sample from deeper within the stratum corneum than the tape strip that preceded it. A 22.1 mm diameter circular region is marked at the center of the application area. A tape stripping adhesive disc is placed over the marked area and even pressure applied using, for example, a neoprene roller, rolled ten times over the adhesive disc. The adhesive disc is removed from the skin surface in a single pulling motion using manual tweezers. To ensure even removal of the skin sample, subsequent discs are removed in a “north, south, east and west” orientation, which is within the skill of the ordinary artisan. Each adhesive disc is non-destructively analyzed for protein content using a suitable instrument (e.g., SquameScan™ 850 instrument commercially available from Heiland Electronics Wetzlar, Germany, or equivalent). The adhesive disc is then immediately placed into a glass vial containing extraction solvent in preparation for subsequent analysis. Solvent extractions are conducted on each tape strip using conventional extraction methods, which are well known to those of ordinary skill in the art, and measuring the amount of Pal-KTTKS (SEQ ID NO: 1) present in the extract, for example, by high performance liquid chromatography (“HPLC”) and/or mass spectrometry.
The procedure is repeated for the remaining nine strips. An additional strip is obtained from outside the area of application of the skin care formulation to serve as a blank sample. […]

A short description of data set [2]: Ex vivo skin penetration study (Franz cell, magnetic arrays moved above epidermis). It is filed as in vitro ADME, human. The settings on record: arrays 1 (uni-directional, 27 mT) and 2 (bi-directional, overall 21 mT) of Table 1; 400 μg/ml in 50:50 PG:PB pH 4. The method, then:
An ex vivo skin penetration study was conducted to compare the ability of different magnetic arrays to enhance penetration of Pal-KTTKS (SEQ ID NO: 1) into the epidermis of human skin. The dermis and epidermis of human skin samples obtained from donors aged 60-65 years were heat separated and the dermis discarded. 20 μL of a Pal-KTTKS (SEQ ID NO: 1) containing composition (400 μg/ml in 50:50 PG:PB at pH 4) was placed on human epidermis in Franz cell. Different magnetic arrays were positioned approximately 1.0 mm above the epidermis samples and moved over the samples at the speed a user might move a cosmetic applicator when applying a skin care product (e.g., about 20-25 cm/sec). Samples were taken and measured at 0, 1, 2, 4, 6, 8, 24 hours. […] For the bi-directional arrays herein, the “1st layer” refers to the layer closest to the skin-contacting surface of the applicator, and the “2nd layer” refers to the layer disposed on the side of the 1st layer opposite the side closest to the skin-contacting surface.

Data set [3] in a line: In vivo skin penetration study #2, Tape Stripping method (magnetic vs non-magnetic applicator). Set-up: species or system human. The method, then: as §1, §2
The procedure is repeated for the remaining nine strips. An additional strip is obtained from outside the area of application of the skin care formulation to serve as a blank sample. The amount of active is normalized to the amount of protein measured. […]

The nature of data set [4]: Diamagnetic susceptibility. It is filed as physicochemical. The note with it: dimensionless.
The mark [5] stands for this setting: magnetic applicator with array #8, average across all 10 test sites, in ng (unit assumed).
[6] abbreviates: non-magnetic applicator, average across all 10 test sites, in ng (unit assumed).

From US10034827B2, “Skin care product and method of use” (The Procter & Gamble Company, priority 2014, dated 2018) come the findings set out here.

Residues, ends and D or L forms follow the SMILES beside them. *: point of attachment. Palmitoyl = CCCCCCCCCCCCCCCC(=O)*

`CCCCCCCCCCCCCCCC(=O)N[C@@H](CCCCN)C(=O)N[C@H](C(=O)N[C@H](C(=O)N[C@@H](CCCCN)C(=O)N[C@@H](CO)C(=O)O)[C@@H](C)O)[C@@H](C)O` [Pal-KTTKS, palmitoyl-lysine-threonine-threonine-lysine-serine] (Palmitoyl-KTTKS-OH; C-terminus assumed): the “Enhancement (active/passive)” value was 1.54 in data set [1] (array #4, tape strips 2-4, from average values of Table 11); 2.18 in data set [1] (array #4, tape strips 5-7, from average values of Table 11); 2.98 in data set [1] (array #4, tape strips 8-10, from average values of Table 11); 4.19 in data set [1] (array #9, tape strips 2-4, from average values of Table 9); 2.38 in data set [1] (array #9, tape strips 5-7, from average values of Table 9); 3.78 in data set [1] (array #9, tape strips 8-10, from average values of Table 9). Further, the “penetration enhancement compared with other magnetic arrays” value in data set [1] (magnetic array #4 (uni-directional)) and in data set [1] (magnetic array #9 (bi-directional)) was “better penetration enhancement than some of the other magnetic arrays tested” in each case. Further, the “penetration enhancement of Pal-KTTKS into human epidermis” value in data set [2] is reported as “demonstrated the best penetration enhancement”. Besides, in data set [3] (array #8 vs non-magnetic applicator, average of the enhancement values of all test sites), the “Enhancement value Strips 2-10 (active/passive), Avg” value is 4. Moreover, in data set [3] (setting [5]), the “Sum 2-10 of Pal-KTTKS recovered, active application, Avg” value worked out at 42.02. Moreover, the “Sum 6-10 of Pal-KTTKS recovered, active application, Avg” value in data set [3] (setting [5]) came to 22.74. In addition, in data set [3] (setting [6]), the “Sum 2-10 of Pal-KTTKS recovered, passive application, Avg” value came to 20.55. In data set [3] (setting [6]), the “Sum 6-10 of Pal-KTTKS recovered, passive application, Avg” value is 10.01. Moreover, the diamagnetic susceptibility entry in data set [4] is on record as “approximately −519”.
